Measured values from patent US10793530B2, “Benzylaminopyrazinylcyclopropanecarboxylic acids, pharmaceutical compositions and uses thereof” (Boehringer Ingelheim International GmbH, priority 2017, dated 2020).

Biological target: human GPR40 receptor (Homo sapiens, UniProt O14842)
Assay: IP1 accumulation measurements using the IPOne assay system
Assay type: cell-based
Details: 1321N1 cells stably expressing human GPR40 receptor; stimulated 1 h at 37° C.
Experimental: IP1 is assayed according to the manufacturers description (Cisbio Bioassays, France). In brief, the assay is started by substitution of the culture medium by stimulation buffer (Hepes 10 mM, CaCl2 1 mM, MgCl2 0.5 mM, KCl 4.2 mM, NaCl 146 mM, glucose 5.5 mM and LiCl 50 mM, pH 7.4). Cells are stimulated for 1 h at 37° C., 5% CO2 by addition of the compounds that are diluted in stimulation buffer containing LiCl. Assays are stopped by adding HTRF-conjugates (IP1-d2 and Anti-IP1 cryptate Tb) and lysis buffer, provided by the manufacturer. After an incubation time of 1 h at room temperature plates are measured using an EnVision™, Perkin Elmer. The obtained fluorescence ratios at 665/615 […] are then used to calculate the pEC50 values using Assay Explorer 3.3 Software (Accelrys, Inc.) by interpolation using an IP1 reference curve and subsequent sigmoidal curve fitting allowing for a variable hill slope.

Sequence of human GPR40 receptor (O14842 whole entry): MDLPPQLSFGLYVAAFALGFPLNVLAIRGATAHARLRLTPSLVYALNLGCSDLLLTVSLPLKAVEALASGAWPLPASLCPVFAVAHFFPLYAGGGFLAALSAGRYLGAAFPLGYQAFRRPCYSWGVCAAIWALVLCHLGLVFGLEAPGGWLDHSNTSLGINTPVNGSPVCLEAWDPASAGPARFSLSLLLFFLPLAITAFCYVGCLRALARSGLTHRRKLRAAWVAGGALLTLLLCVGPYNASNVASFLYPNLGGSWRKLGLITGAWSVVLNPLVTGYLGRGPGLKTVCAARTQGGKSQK

SMILES: Cc1cc(OCC2CCCO2)cc(C)c1-c1ccc(F)c(CNc2cnc(C3CC3C(=O)O)cn2)c1 (mixture of isomers) [Example 44]
- EC50: 1920 nM

SMILES: Cc1cc(OCCCS(C)(=O)=O)cc(C)c1-c1cccc(CNc2cnc([C@H]3C[C@@H]3C(=O)O)cn2)c1 [Example 1, (1S,2S)-2-(5-{[4′-(3-Methanesulfonyl-propoxy)-2′,6′-dimethyl-biphenyl-3-ylmethyl]-amino}-pyrazin-2-yl)-cyclopropanecarboxylic acid]
- EC50: 36 nM

SMILES: CC(C)(O)CCOc1ccc(-c2cc(CNc3cnc([C@H]4C[C@@H]4C(=O)O)cn3)ccc2C(F)(F)F)cc1 [Example 2, (1S,2S)-2-(5-{[4′-(3-Hydroxy-3-methyl-butoxy)-6-trifluoromethyl-biphenyl-3-ylmethyl]-amino}-pyrazin-2-yl)-cyclopropanecarboxylic acid]
- EC50: 6 nM

SMILES: O=C(O)[C@H]1C[C@@H]1c1cnc(NCc2ccc(C(F)(F)F)c(-c3ccc(OCC4CC4)cc3)c2)cn1 [Example 3, (1S,2S)-2-{5-[(4′-Cyclopropylmethoxy-6-trifluoromethyl-biphenyl-3-ylmethyl)-amino]-pyrazin-2-yl}-cyclopropanecarboxylic acid]
- EC50: 28 nM

SMILES: O=C(O)[C@H]1C[C@@H]1c1cnc(NCc2ccc(C(F)(F)F)c(-c3ccc(OC(F)(F)F)cc3)c2)cn1 [Example 4, (1S,2S)-2-{5-[(4′-Trifluoromethoxy-6-trifluoromethyl-biphenyl-3-ylmethyl)-amino]-pyrazin-2-yl}-cyclopropanecarboxylic acid]
- EC50: 9 nM

SMILES: Cc1cc(OCCC(C)(C)O)cc(C)c1-c1cc(CNc2cnc([C@H]3C[C@@H]3C(=O)O)cn2)ccc1C(F)(F)F [Example 5, (1S,2S)-2-(5-{[4′-(3-Hydroxy-3-methyl-butoxy)-2′,6′-dimethyl-6-trifluoromethyl-biphenyl-3-ylmethyl]-amino}-pyrazin-2-yl)-cyclopropanecarboxylic acid]
- EC50: 310 nM

SMILES: COc1ccc(-c2ccc(-c3cc(CNc4cnc([C@H]5C[C@@H]5C(=O)O)cn4)c(F)cc3F)cc2)nc1 [Example 6, (1S,2S)-2-(5-{[4,6-Difluoro-4′-(5-methoxy-pyridin-2-yl)-biphenyl-3-ylmethyl]-amino}-pyrazin-2-yl)-cyclopropanecarboxylic acid]
- EC50: 19 nM

SMILES: COc1ccc(-c2ccc(-c3cc(CNc4cnc([C@H]5C[C@@H]5C(=O)O)cn4)c(F)cc3F)cc2)nn1 [Example 7, (1S,2S)-2-(5-{[4,6-Difluoro-4′-(6-methoxy-pyridazin-3-yl)-biphenyl-3-ylmethyl]-amino}-pyrazin-2-yl)-cyclopropanecarboxylic acid]
- EC50: 38 nM

SMILES: Cc1cc(N)ccc1-c1cc(CNc2cnc([C@H]3C[C@@H]3C(=O)O)cn2)c(F)cc1F [Example 8, (1S,2S)-2-{5-[(4′-Amino-4,6-difluoro-2′-methyl-biphenyl-3-ylmethyl)-amino]-pyrazin-2-yl}-cyclopropanecarboxylic acid]
- EC50: 126 nM

SMILES: O=C(O)[C@H]1C[C@@H]1c1cnc(NCc2cc(-c3ccc(O)c(Cl)c3)c(F)cc2F)cn1 [Example 9, (1S,2S)-2-{5-[(3′-Choro-4,6-difluoro-4′-hydroxy-biphenyl-3-ylmethyl)-amino]-pyrazin-2-yl}-cyclopropanecarboxylic acid]
- EC50: 596 nM

SMILES: COc1c(F)cc(-c2cc(CNc3cnc([C@H]4C[C@@H]4C(=O)O)cn3)c(F)cc2F)cc1F [Example 10, (1S,2S)-2-{5-[(4,6,3′,5′-Tetrafluoro-4′-methoxy-biphenyl-3-ylmethyl)-amino]-pyrazin-2-yl}-cyclopropanecarboxylic acid]
- EC50: 53 nM

SMILES: Cc1cc(OCC(C)(C)O)cc(C)c1-c1ccc(F)c(CNc2cnc(C3CC3C(=O)O)cn2)c1 (stereo not shown) [Example 11]
- EC50: 18 nM

SMILES: Cc1cc(OCC2(O)CCS(=O)(=O)CC2)cc(C)c1-c1ccc(F)c(CNc2cnc(C3CC3C(=O)O)cn2)c1 (stereo not shown) [Example 12]
- EC50: 100 nM

SMILES: CNC(=O)c1cc(C)c(-c2ccc(F)c(CNc3cnc(C4CC4C(=O)O)cn3)c2)c(C)c1 (stereo not shown) [Example 13]
- EC50: 224 nM

SMILES: Cc1cc(C(=O)N(C)C)cc(C)c1-c1ccc(F)c(CNc2cnc(C3CC3C(=O)O)cn2)c1 (stereo not shown) [Example 14]
- EC50: 34 nM

SMILES: Cc1cc(C(=O)O)cc(C)c1-c1ccc(F)c(CNc2cnc(C3CC3C(=O)O)cn2)c1 (stereo not shown) [Example 15]
- EC50: 24 nM

SMILES: Cc1cc(-c2ccc(=O)n(C)c2)cc(C)c1-c1ccc(F)c(CNc2cnc(C3CC3C(=O)O)cn2)c1 (stereo not shown) [Example 16]
- EC50: 21 nM

SMILES: CC(C)c1ccccc1-c1ccc(F)c(CNc2cnc(C3CC3C(=O)O)cn2)c1 (stereo not shown) [Example 17]
- EC50: 154 nM

SMILES: Cc1cc(OCC2CCOCC2)cc(C)c1-c1ccc(F)c(CNc2cnc(C3CC3C(=O)O)cn2)c1 (stereo not shown) [Example 18]
- EC50: 14 nM

SMILES: Cc1cc(OC2CCOCC2)cc(C)c1-c1ccc(F)c(CNc2cnc(C3CC3C(=O)O)cn2)c1 (stereo not shown) [Example 20]
- EC50: 22 nM

SMILES: Cc1cc(-c2cc(=O)n(C)cn2)cc(C)c1-c1ccc(F)c(CNc2cnc(C3CC3C(=O)O)cn2)c1 (stereo not shown) [Example 21]
- EC50: 21 nM

SMILES: Cc1cc(-c2ccn(C)c(=O)c2)cc(C)c1-c1ccc(F)c(CNc2cnc(C3CC3C(=O)O)cn2)c1 (stereo not shown) [Example 22]
- EC50: 14 nM

SMILES: Cc1cc(OCC(C)(C)C#N)cc(C)c1-c1ccc(F)c(CNc2cnc(C3CC3C(=O)O)cn2)c1 (stereo not shown) [Example 24]
- EC50: 34 nM

SMILES: Cc1cc(-c2nnn(CC(C)(C)O)n2)cc(C)c1-c1ccc(F)c(CNc2cnc(C3CC3C(=O)O)cn2)c1 (stereo not shown) [Example 28]
- EC50: 7 nM

SMILES: Cc1cc(OCC2(O)CCOCC2)cc(C)c1-c1ccc(F)c(CNc2cnc(C3CC3C(=O)O)cn2)c1 (stereo not shown) [Example 29]
- EC50: 68 nM

SMILES: Cc1cc(OCC2(O)CCSCC2)cc(C)c1-c1ccc(F)c(CNc2cnc(C3CC3C(=O)O)cn2)c1 (stereo not shown) [Example 30]
- EC50: 28 nM

SMILES: COc1cc(-c2cc(C)c(-c3ccc(F)c(CNc4cnc(C5CC5C(=O)O)cn4)c3)c(C)c2)ccn1 (stereo not shown) [Example 31]
- EC50: 5 nM

SMILES: Cc1nc(-c2ccc(-c3ccc(F)c(CNc4cnc(C5CC5C(=O)O)cn4)c3)cc2)cs1 (stereo not shown) [Example 32]
- EC50: 20 nM

SMILES: Cc1cc(OCC2(C)COC2)cc(C)c1-c1ccc(F)c(CNc2cnc(C3CC3C(=O)O)cn2)c1 (stereo not shown) [Example 33]
- EC50: 147 nM

SMILES: Cc1cc(OCC(=O)O)cc(C)c1-c1ccc(F)c(CNc2cnc(C3CC3C(=O)O)cn2)c1 (stereo not shown) [Example 34]
- EC50: 104 nM

SMILES: CCc1cccc(CC)c1-c1ccc(F)c(CNc2cnc(C3CC3C(=O)O)cn2)c1 (stereo not shown) [Example 36]
- EC50: 4 nM

SMILES: COc1cc(OC)c(F)c(-c2ccc(F)c(CNc3cnc(C4CC4C(=O)O)cn3)c2)c1F (stereo not shown) [Example 37]
- EC50: 47 nM

SMILES: Cc1cc(CO)cc(C)c1-c1ccc(F)c(CNc2cnc(C3CC3C(=O)O)cn2)c1 (stereo not shown) [Example 39]
- EC50: 4280 nM

SMILES: O=C(O)C1CC1c1cnc(NCc2cc(-c3ccccc3C(F)(F)F)ccc2F)cn1 (stereo not shown) [Example 40]
- EC50: 51 nM

SMILES: Cc1ccc(Cl)c(-c2ccc(F)c(CNc3cnc(C4CC4C(=O)O)cn3)c2)c1Cl (stereo not shown) [Example 41]
- EC50: 723 nM

SMILES: Cc1cc(OC2CCOC2)cc(C)c1-c1ccc(F)c(CNc2cnc(C3CC3C(=O)O)cn2)c1 (stereo not shown) [Example 42]
- EC50: 28 nM

SMILES: O=C(O)C1CC1c1cnc(NCc2cc(-c3c(F)cc(F)cc3F)ccc2F)cn1 (stereo not shown) [Example 45]
- EC50: 34 nM

SMILES: O=C(O)C1CC1c1cnc(NCc2cc(-c3c(Cl)cccc3Cl)ccc2F)cn1 (stereo not shown) [Example 46]
- EC50: 6 nM

SMILES: O=C(O)C1CC1c1cnc(NCc2cc(-c3c(F)cccc3F)ccc2F)cn1 (stereo not shown) [Example 47]
- EC50: 579 nM

SMILES: COc1cc(C)c(-c2ccc(F)c(CNc3cnc(C4CC4C(=O)O)cn3)c2)c(C)c1 (stereo not shown) [Example 48]
- EC50: 24 nM
